Legend:
desquamine = assay: desquamine-like activity of an epidermic extract (hydrolysis of synthetic specific substrate of tPA); assay type: biochemical
Experimental: Effect of a diethylphosphatoethyltrisilanol's precursor, the diethylphosphatoethyltriethoxysilane, on the "desquame-like" activity of an epidermic extract.
Desquamine is obtained from an epidermic extract according to the Brysk and al (1994) method. The desquamine activity is evaluated by its ability to hydrolyze the synthetic specific substrate of the tPA for which it has a very strong affinity.

[1] = tested on: stromelysine type activity of human chondrocytes; assay: stromelysine type enzymatic activity of human chondrocytes culture after IL-1 induction (digestion of casein coupled with resorufine); assay type: cell-based; settings: after IL-1 treatment
Experimental: Effect of a diethylphosphatoethyltrisilanol's precursor, the diethylphosphatoethyltriethoxysilane, on the stromelysine type activity of human chondrocytes culture after IL-1 induction.
(§1) Human chondrocytes cultures are carried out from human cartilages sampled on cadavers 12 hours after the death. In aqueous buffered medium (pH 7.0-7.4), the diethylphosphatoethyltriethoxysilane releases the corresponding diethylphosphatoethyltrisilanol, which is the active silanol. The stromelysine type enzymatic activity of these chondrocytes cultures is quantified, after previous treatment of cultures with IL-1, by the method of digestion of casein coupled with resorufine.

[2] = tested on: chymotrypsine-like activity of epidermic extract; assay: chymotrypsine-like activity of an epidermic extract (BTEE degradation); assay type: biochemical
Experimental: Effect of a diethylphosphatoethyltrisilanol's precursor, the diethylphosphatoethyltriethoxysilane, on the chymotrypsine type activity of an epidermic extract.
After sampling from a cutaneous tissue, the epidermis is cut then put in an appropriate buffered solution. The solution is homogenized with Ultra Turax (40 C.) until a satisfying epidermic extract is obtained. The chymotrypsine-like activity of this extract is assessed by the measure of the N alpha-Benzoyl-L-Tyrosine Ethyl Ester (BTEE) degradation (specific synthetic substrate).

[3] = tested on: collagenase type activity of human chondrocytes; assay: collagenase type enzymatic activity of human chondrocytes cultures after IL-1 induction (Cawston and Barrett method); assay type: cell-based; settings: after IL-1 treatment
Experimental: Effect of a diethylphosphatoethyltrisilanol's precursor, the diethylphosphatoethyltriethoxysilane, on the collagenase type activity of human chondrocytes cultures after IL-1 induction.
(§2) Chondrocytes cultures are carried out from human cartilages sampled on cadavers 12 hours after the death. In aqueous buffered medium (pH 7.0-7.4), the diethylphosphatoethyltriethoxysilane releases the corresponding diethylphosphatoethyltrisilanol, which is the active silanol. The collagenase type enzymatic activity of these chondrocytes cultures is quantified following the Cawston and Barrett method after previous treatment of the cultures by IL-1.

[4] = tested on: stromelysine type activity of human chondrocytes; assay: stromelysine type enzymatic activity of human chondrocytes culture (digestion of casein coupled with resorufine); assay type: cell-based; settings: no IL-1
Experimental: Effect of a diethylphosphatoethyltrisilanol's precursor, the diethylphosphatoethyltriethoxysilane, on the stromelysine type activity of human chondrocytes culture.
as §1, with “Chondrocytes” for “Human chondrocytes”, “quantified” for “quantified, after previous treatment of cultures with IL-1,”

[5] = tested on: osteoblasts alkaline phosphatase; assay: synthetic activity of osteoblasts (alkaline phosphatase activity); assay type: cell-based, human
Experimental: Effect of a diethylphosphatoethyltrisilanol's precursor, the diethylphosphatoethyltriethoxysilane, on the synthetic activity of osteoblasts.
(§3) Osteoblasts cultures are carried out from human bones sampled on cadavers 12 hours after the death. In aqueous buffered medium (pH 7.0-7.4), the diethylphosphatoethyltriethoxysilane releases the corresponding diethylphosphatoethyltrisilanol, which is the active silanol. The synthetic activity of these osteoblasts is quantified by the measure of the alkaline phosphatase activity.

IL-6 of osteoblasts = assay: IL-6 level of osteoblasts (ELISA); assay type: cell-based, human
Experimental: Effect of a diethylphosphatoethyltrisilanol's precursor, the diethylphosphatoethyltriethoxysilane, on the IL-6 activity of osteoblasts.
as §3, with “IL-6” for “The synthetic activity of these osteoblasts”, “ELISA technique.” for “measure of the alkaline phosphatase activity.”

[6] = tested on: collagenase type activity of human chondrocytes; assay: collagenase type enzymatic activity of human chondrocytes culture (Cawston and Barrett method); assay type: cell-based; settings: no IL-1
Experimental: Effect of a diethylphosphatoethyltrisilanol's precursor, the diethylphosphatoethyltriethoxysilane, on the collagenase type activity of human chondrocytes culture.
as §2, with “method.” for “method after previous treatment of the cultures by IL-1.”

Compound	effect on "desquamine-like" activity of the epidermic extract, in words (desquamine)	inhibition of the "desquamine-like" activity of the epidermic extract (desquamine; 300 μg/ml) [%]	inhibition of "collagenase-like" activity of the chondrocytes (stromelysine type activity test) ([1]; 500 μg/ml) [%]	effect on "collagenase-like" activity of the chondrocytes (stromelysine type activity test), in words [1]	effect on "chymotrypsine-like" activity of the epidermic extract, in words [2]	inhibition of "chymotrypsine-like" activity of the epidermic extract ([2]; 400 μg/ml (printed 400 μ0 g/ml)) [%]	inhibition of "collagenase-like" activity of the chondrocytes ([3]; 500 μg/ml) [%]	effect on "collagenase-like" activity of the chondrocytes, in words [3]	inhibition of "collagenase-like" activity of the chondrocytes (stromelysine type activity test) ([4]; 500 μg/ml) [%]	effect on "collagenase-like" activity of the chondrocytes (stromelysine type activity test), in words [4]	effect on osteoblasts alkaline phosphatases activity, in words [5]	increase of the osteoblasts alkaline phosphatases activity (printed "inhibition") ([5]; 100 μg/ml)	effect on osteoblasts IL-6 level, in words (IL-6 of osteoblasts)	decrease of the osteoblasts IL-6 level (inhibition) (IL-6 of osteoblasts; 100 μg/ml) [%]	inhibition of "collagenase-like" activity of the chondrocytes ([6]; 500 μg/ml) [%]	effect on "collagenase-like" activity of the chondrocytes, in words [6]
C[Si](O)(O)O [CH3 Si(OH)3]	dose-dependent inhibition	25	–	–	–	–	–	–	–	–	–	–	–	–	–	–
CCOP(=O)(CC[Si](O)(O)O)OCC [diethylphosphatoethyltrisilanol]	–	–	18	dose-dependent decrease	dose-dependant decrease	27	21	dose-dependent decrease	37	dose-dependent decrease	dose-dependent increase	+24%	dose-dependent decrease	-49	30	dose-dependent decrease
